Test results published in US20120258975A1, “Potent Small Molecule Inhibitors of Autophagy, and Methods of Use Thereof” (Shanghai Institute of Organic Chemistry, priority 2009, published 2012).

What was measured:
H4 cells = assay: H4 cell growth and cell cycle; type: cell-based; conditions: 5 μM for 24 h and 48 h
Method: FIG. 6 depicts results showing that MBCQ has little effect on H4 cell growth. A, H4 cells were treated with MBCQ (5 μM) for 5 days and harvested daily for cell number counting in the presence of trypan blue; B, H4 cells were treated with MBCQ (5 μM) for 24 h and 48 h, and then cells were fixed with 70% ethanol, stained with propidium iodide (40 μg/mL) and incubated with RNase (200 μg/mL solution for 30 min. The cell cycle profile and possible apoptotic cell death were analyzed by flow cytometer.
To characterize the effect of MBCQ on cellular activity, the effect of MBCQ on cell survival and cell cycle was determined as outlined below. H4 cells were treated with MBCQ (5 μM) for 5 days and harvested daily for cell number counting in the presence of trypan blue. […] The cell cycle profile and possible apoptotic cells in H4 cells treated with MBCQ (5 μM) for 24 h and 48 h was also determined.

mTOR pathway = assay: Western blotting of mTOR pathway phosphorylation; type: cell-based
Excerpt: Since MBCQ inhibits autophagy induced by rapamycin and starvation, it was first determined if MBCQ affects the activity of mTOR. […] Thus, it was concluded that MBCQ has no effect for the mTOR pathway or type I PI3 kinase.

MDCK cells = MDCK cells under glucose-free condition; type: cell-based, canine
Excerpt: (§1) Hs578Bst cells, established from normal tissue peripheral to the tumor and is myoepithelial in origin, also were not sensitive to spautin (FIGS. 12C and 12D).

Beclin1 = assay: Ubiquitination of Beclin1 in 293T cells; type: cell-based
Method: FIG. 16 depicts results of experiments showing that spautin promotes the degradation of Beclin1 through proteasomal pathway. […] DMSO (1‰), MBCQ (10 μM), spautin (10 μM), NH4Cl (10 mM), MG132 (5 μM). […] B, 293T cells were transfected with GFP-Beclin1 and HA-Ub expression vectors.
Ubiquitination represents an essential key step in mediating proteasomal degradation. Experiments were therefore run to determine if ubiquitination of Beclin1 is increased in cells treated with C43.

[1] = tested on: autophagy (LC3) in pancreas; assay: Cerulein induced pancreatitis model in rats; type: in vivo; conditions: 40 mg/kg intraperitoneally hourly for 4 times with cerulein
Method: FIG. 13 depicts results showing the effect of MBCQ and derivatives in vivo. (A) Mice were injected with rapamycin (10 mg/kg) alone as a positive control, or with C43 or MBCQ (40 mg/kg) intraperitoneally every hour for 4 h and then sacrificed at 5 th h. The autophagy levels in liver were analyzed by western blotting using anti-LC3 antibody. (B) C43 reduces the levels of autophagy induced by cerulein. Rats were injected intraperitoneally with cerulein (50 μg/kg) alone or with C43 (40 mg/kg) hourly for 4 times. The rats were sacrificed at one h after the last injection and the pancreas were isolated for western blotting analysis using anti-LC3 and anti-tubulin (as a control).
Since autophagy has been proposed to contribute to the tissue damage in pancreatitis, MBCQ derivatives were tested to see if they could reduce tissue damage induced by cerulein injection, a well-established animal model of pancreatitis (Hashimoto, D., Ohmuraya, M., Hirota, M., Yamamoto, A., Suyama, K., Ida, S., Okumura, Y., Takahashi, E., Kido, H., Araki, K., et al. (2008). Involvement of autophagy in trypsinogen activation within the pancreatic acinar cells. J Cell Biol 181, 1065-1072; and Ohmuraya, M., and Yamamura, K. (2008). Autophagy and acute pancreatitis: a novel autophagy theory for trypsinogen activation. Autophagy 4, 1060-1062). […]

Bcap-37 cells = assay: Bcap-37 cells, normal and glucose free condition; type: cell-based
Method: FIG. 11 depicts results showing that selected cancer cell lines are sensitive to MBCQ and its active derivatives under glucose free condition. BT549 cells were treated with indicated concentrations of C43 for 24 h in normal DMEM (A) or under serum free condition (B). The cell viability was assayed by MTT or harvested for western blotting assay with anti-LC3 (C). MCF-7 cells were treated with DMSO (1‰), C43 (10 μM) in DMEM with (D) or without (E) glucose, for 12 h. The cell viability was assayed by MTT or images (F). […] Bcap-37 cells were treated with indicated concentrations of C43 for 24 h in normal DMEM (H) or under serum free condition (I). The cell viability was assayed by MTT or images (J) And the cell lysates treated with C43 for indicated time were analyzed by western blotting using anti-PARP (L) or anti-LC3 (M) and α-tubulin was used as a loading control. (K) Cell cycle profile of Bcap-37 treated with C43. Bcap-37 cells were treated with DMSO (0.1%) (left figure), C43 (10 μM) (right figure) for 12 h. The cells were then fixed with 70% ethanol, stained with propidium iodide (PI, 40 μg/mL) and treated with RNase enzyme (200 μg/mL) solution for 30 min in dark. Cell cycle profile and possible apoptotic death were statistics analyzed by flow cytometer.
To explore the mechanism by which C43 induces the death of Bcap-37 cells, the DNA content was analyzed by FACS.

[2] = tested on: USP10/Beclin1 and USP13/Beclin1 interaction; assay: USP10 or USP13 / GFP-Beclin1 co-immunoprecipitation in 293T cells; type: cell-based; conditions: 10 μM, 4 h, with MG132
Method: To further confirm that USP10 and USP13 are the deubiquitinating proteases of Vps34 complexes, the interaction of Flag-USP10/GFP-Beclin1 and Myc-USP13/GFP-Beclin1 in 293T cells was assayed with immunoprecipitation. […] Furthermore, this may provide a mechanism to explain why beclin1 is frequently lost in many kinds of cancers as the loss of beclin1 may lead to a reduction of p53 by inhibiting its deubiquitining proteases.

Hs578Bst cells = assay: Hs578Bst cells; type: cell-based
Method: A-B, MDCK cells were treated with DMSO (1‰) and spautin at indicated concentration in DMEM with or without glucose for 24 h. […] C-D, Hs578Bst cells were treated with DMSO (1‰) and C43 as indicated concentration in DMEM with or without glucose for 24 h.
as §1

SMILES	cell cycle distribution (H4 cells)	phosphorylation of GSK-3α/β, AKT (mTOR pathway)	phosphorylation of mTOR and its targets, p70S6K and S6 (mTOR pathway; control or rapamycin treated cells)	apoptosis (MDCK cells)	growth suppression (MDCK cells; 10 μM of spautin for 48 hrs) [%]	ubiquitination of Beclin1 (Beclin1)	levels of autophagy induced by cerulein injection (pancreas) [1]	autophagy (western blot) (Bcap-37 cells; basal and glucose-free conditions)	sensitivity of cells to compound (Bcap-37 cells; glucose free condition)	DNA content by FACS (Bcap-37 cells; glucose-free condition)	proliferation (Bcap-37 cells; in the presence of 10% bovine serum)	interaction of Flag-USP10 with GFP-Beclin1 [2]	sensitivity of cells to compound (Hs578Bst cells)
Clc1ccc2ncnc(NCc3ccc4c(c3)OCO4)c2c1 [MBCQ]	no detectable effect on cell cycle distribution	Nor does MBCQ have any effect	no effect on the phosphorylation of mTOR and its targets	–	–	–	–	–	–	–	–	–	–
Fc1ccc(CNc2ncnc3ccc(F)cc23)cc1 [C43, 6-fluoro-N-(4-fluorobenzyl)quinazolin-4-amine]	–	–	–	did not induce apoptosis	~25	promoted the ubiquitination of Beclin1	significantly reduced the levels of autophagy	inhibited autophagy	highly sensitive	induced a peak of sub-diploid DNA	inhibited the proliferation	impair the interaction	not sensitive
